Assay [1] addresses T1, A. fumigatus UGM (Aspergillus fumigatus, UniProt Q4W1X2).
T1 construct: 8x His-tag (TEV-cleavable) (cleaved yes); made in house; host or cells: E. coli BL21 Turbo (DE3)
The experiment in a line: biochemical. It counts as binding. The conditions noted are these: 20 µM compound, 2% DMSO, 30 nM ADP-TAMRA, normalized to negative control; read-out: Normalized anisotropy (%). On the procedure:
High-throughput screening of the Spectrum Collection library using the FP assay with the ADP-TAMRA[22] probe was performed at the Virginia Tech Center for Drug Discovery Screening Laboratory. 384 well plates (Greiner 784900) were used and the reaction volume was 15 µL using 25 mM HEPES buffer (pH 7.0). For the screening, 30 nM of ADP-TAMRA with 6.7 µM UGM (based on the Bradford assay) and 20 µM of library compound were used, with a final DMSO concentration of 2%. Fluorescence polarization measurements were performed with excitation at 544 nm and emission at 584 nm, using a wavelength cutoff of 570 nm. Anisotropy measurements were performed after 30 and 120 minutes of incubation at 25 °C. Anisotropy values were normalized to the values obtained in the negative control sample: UGM, ADP-TAMRA, and DMSO (high anisotropy values). The positive control consisted of ADP-TAMRA and DMSO (low anisotropy values). The Z prime (Z′) value was determined using equation (1) where, σN,P and μN,P represent the standard deviation and the mean value the of the negative and positive controls respectively.1 Z′=1−3(σN+σP)/|μN−μP|

Assay [2] addresses T1, A. fumigatus UGM. The experiment in a line: biochemical. It is filed as biochemical. The conditions noted are these: for Inhibition of product formation, concentration dependence: UPLC at 20 and 200 µM compound, 2% DMSO; for Concentration effect: inhibition at 200 µM vs 20 µM compound, UPLC; for inhibition at 200 µM: read-out: Inhibition > 50 %. On the procedure:
(§1) The reaction was quenched with the addition of 70 µL acetonitrile. […] Samples were run at a flow rate of 0.5 mL/min for 5 min. IC50 was also determined by following NADPH oxidation at 340 nm. […] Data was analyzed using KaleidaGraph software. […] Global fitting was performed with Graphpad Prims 6 software (La Jolla, CA).

Assay [3] has as its target T1, A. fumigatus UGM. The experiment in a line: biochemical. It is filed as biochemical. As to conditions: for Type of Inhibition: NADPH oxidation at different concentrations of inhibitor and NADPH; for Inhibition of NADPH oxidation: absence of UDP-Galf. On the procedure: as §1
Assay [4] addresses T1, A. fumigatus UGM. Briefly: biochemical. As to conditions: for T•∆S / ∆G / ∆H: ITC, 25 °C. It is filed as binding. Here is the method:
Binding of inhibitors to UGM was measured with an Auto-ITC 200 ITC instrument. UGM was dialyzed in 50 mM potassium phosphate buffer, pH 7.0, for 2 h at 4 °C. In all cases, ligands were dissolved in dialysis buffer and protein and ligand were filtered with a […] membrane prior to loading. […] Inhibitor concentration in the syringe was 2 mM (2% DMSO), except for chrysin where the concentration was 600 µM (4% DMSO). […] Thermodynamic parameters were determined from ITC results using Microcal Origin version 7.0 (OriginLab) with the “ITC custom” add-on installed.

For the next assay, the target named is T2, UGM (Aspergillus fumigatus, UniProt Q4W1X2).
T2 construct: 8x His-tag (TEV-cleavable) (cleaved yes); made in house; host or cells: E. coli BL21 Turbo (DE3)
T2 sequence (Q4W1X2 whole entry): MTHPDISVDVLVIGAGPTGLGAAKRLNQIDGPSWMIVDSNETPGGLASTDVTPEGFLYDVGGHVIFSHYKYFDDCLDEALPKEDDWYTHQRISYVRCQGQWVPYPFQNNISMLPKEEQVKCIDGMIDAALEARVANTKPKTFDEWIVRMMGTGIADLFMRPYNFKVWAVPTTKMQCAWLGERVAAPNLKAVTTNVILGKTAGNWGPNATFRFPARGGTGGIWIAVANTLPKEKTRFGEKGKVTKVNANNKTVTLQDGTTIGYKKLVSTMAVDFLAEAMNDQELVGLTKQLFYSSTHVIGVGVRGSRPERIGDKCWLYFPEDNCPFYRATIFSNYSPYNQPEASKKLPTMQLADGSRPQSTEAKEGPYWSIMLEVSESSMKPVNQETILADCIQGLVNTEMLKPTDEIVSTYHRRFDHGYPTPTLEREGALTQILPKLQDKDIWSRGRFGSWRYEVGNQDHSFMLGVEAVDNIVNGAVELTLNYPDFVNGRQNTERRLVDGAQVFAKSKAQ
The experiment in a line: ThermoFAD melting temperature assay. It counts as binding. As to conditions: 20, 100 and 1000 µM compound, 2% DMSO, 1 mg/mL UGM. On the procedure: The melting temperature[25] of UGM was determined by measuring the FAD fluorescence as a function of temperature (20–90 °C, 1 °C step) following the reported ThermoFAD procedure. The reaction mix consisted of 20 µL of 1 mg/mL UGM, 2% DMSO in 50 mM potassium phosphate buffer, pH 7.0. As a reference and positive control, the Tm was calculated in the presence DMSO and UDP (10 mM). Different concentrations of inhibitors were added in the range of 0–1 mM at a final DMSO concentration of 2% in the above-mentioned buffer. All experiments were done in triplicate.

In assay [5] the test system is A. fumigatus. Briefly: Toxicity study, growth in PDA medium at 37 °C. It is filed as cell-based, Aspergillus fumigatus. As to conditions: for A. fumigatus toxicity: 1000 µM; for A. fumigatus toxicity under optimal growth conditions: 600 and 1000 µM, 24-48 h.
For assay [6], the system named is A. fumigatus. The experiment in a line: Congo red susceptibility assay. It counts as cell-based, Aspergillus fumigatus. As to conditions: 100 µM compound with congo red (0.5 and 1 mg/mL), 48 h, 37 °C.
In assay [7] the test system is A. fumigatus. Briefly: Thermotolerance study, growth in PDA at 50 °C. It counts as cell-based, Aspergillus fumigatus. As to conditions: 1000 µM compound, 48 h at 50 °C, vs reference.
Assay [8] deals with UDP-glucuronosyltransferases. The conditions noted are these: cited from earlier work.
A further assay relates to S. aureus strains. As to conditions: cited from earlier work.

T1 sequence (Q4W1X2 whole entry): as above

Regarding `O=C1C[C@@H](c2ccc(O)cc2)Oc2cc(O)cc(O)c21` [(2S)-naringenin], the remaining activity at 20 µM on A. fumigatus UGM [1] came out at 23%. Also, at A. fumigatus UGM [2], the “Inhibition of product formation, concentration dependence” value is on record as “concentration dependent potency”; the Concentration effect result is “+”; the inhibition at 200 µM is more than 50%. Further, at A. fumigatus UGM [3], the “Type of Inhibition” value is recorded as “competitive against NADPH” and the “Inhibition of NADPH oxidation” value is “inhibited NADPH oxidation”. Besides, on A. fumigatus UGM [4], the dissociation constant Kd came to 65 ± 13 µM, the “T•∆S” value stood at 0.9 ± 0.3 kcal/mol, the “∆G” value is -5.7 ± 1.0 kcal/mol and the “∆H” value was -4.8 ± 1.0 kcal/mol. Moreover, at UGM, the “Increase of Tm of UGM” value was ~ 2.7 °C. Besides, in the assay on A. fumigatus [5], the A. fumigatus toxicity result is “no A. fumigatus toxicity” and the “A. fumigatus toxicity under optimal growth conditions” value is “not toxic”. Further, the “Growth decrease with congo red” value with A. fumigatus [6] was ~ 30%. For the same compound, the “Delay in colony development” value with A. fumigatus [7] was ~ 30%. In addition, the “Effect on UDP-glucuronosyltransferases” value in assay [8] is recorded as “inhibitory effect”.

Take `COc1ccc([C@@H]2CC(=O)c3c(O)cc(O)cc3O2)cc1O` [(2S)-hesperetin]: the remaining activity at 20 µM at A. fumigatus UGM [1] was 17%. Besides, at A. fumigatus UGM [2], the “Inhibition of product formation, concentration dependence” value is on record as “concentration dependent potency”; the Concentration effect result is reported as “+”; the inhibition at 200 µM is more than 50%. At A. fumigatus UGM [3], the “Type of Inhibition” value is recorded as “Competitive (NADPH)” and the “Inhibition of NADPH oxidation” value is given as “inhibited NADPH oxidation”. On A. fumigatus UGM [3] (listed as (2S)-Hesperetin), the “Type of Inhibition” value is recorded as “competitive against NADPH”. For the same compound, at A. fumigatus UGM [4], the Kd worked out at 31 ± 6 µM, the “T•∆S” value is 2.1 ± 0.2 kcal/mol, the “∆G” value is -6.1 ± 0.4 kcal/mol and the “∆H” value is -4.1 ± 0.4 kcal/mol. Further, the “Increase of Tm of UGM” value on UGM was ~ 2.7 °C. Also, in the assay on A. fumigatus [5], the A. fumigatus toxicity result is recorded as “no A. fumigatus toxicity” and the “A. fumigatus toxicity under optimal growth conditions” value is given as “not toxic”. For the same compound, the “Growth decrease with congo red” value in the assay with A. fumigatus [6] is ~ 50%. In the assay on A. fumigatus [7], the “Delay in colony development” value is given as ~ 50%. In the assay on S. aureus strains, the Biofilm formation inhibition is on record as more than 70%. For the same compound, the “Effect on UDP-glucuronosyltransferases” value in assay [8] is recorded as “inhibitory effect”.
